Data on 8 compounds can be found in patent US7659404B2, “Broad spectrum 2-(substituted-amino)-benzothiazole sulfonamide HIV protease inhibitors” (Tibotec Pharmaceuticals Ltd., priority 2001, dated 2010).

In experiment [1] the test system is clinically isolated HIV strain T. In kind it is cell-based. To be noted: FR=EC50(mutant strain)/EC50(HIV-1 strain LAI). On the procedure: (§1) HIV- or mock-infected MT4 cells were incubated for five days in the presence of various concentrations of the inhibitor. […] Cell viability is measured by measuring the concentration of MTT, a yellow, water soluble tetrazolium dye that is converted to a purple, water insoluble formazan in the mitochondria of living cells only. Upon solubilization of the resulting formazan crystals with isopropanol, the absorbance of the solution is monitored at 540 nm. The values correlate directly to the number of living cells remaining in the culture at the completion of the five day incubation. The inhibitory activity of the compound was monitored on the virus-infected cells and was expressed as EC50 and EC90. These values represent the amount of the compound required to protect 50% and 90%, respectively, of the cells from the cytopathogenic effect of the virus. The toxicity of the compound was measured on the mock-infected cells and was expressed as CC50, which represents the concentration of compound required to inhibit the growth of the cells by 50%. The selectivity index (SI) (ratio CC50/EC50) is an indication of the selectivity of the anti-HIV activity of the inhibitor.
(§2) Because of the increasing emergence of drug resistant HIV strains, the present compounds were tested for their potency against clinically isolated HIV strains harboring several mutations.
(§3) As a measure of the broad spectrum activity of the present compounds, the fold resistance (FR) defined as FR=EC50(mutant strain)/EC50(HIV-1 strain LAI).

In experiment [2] the test system is clinically isolated HIV strain J. In kind it is cell-based. To be noted: FR=EC50(mutant strain)/EC50(HIV-1 strain LAI). The method, then:
as §1, §2, §3

Experiment [3] relates to clinically isolated HIV strain H. In kind it is cell-based. To be noted: FR=EC50(mutant strain)/EC50(HIV-1 strain LAI). The method, then:
as §1, §2, §3

The subject of experiment [4] is clinically isolated HIV strain I. In kind it is cell-based. Particulars: FR=EC50(mutant strain)/EC50(HIV-1 strain LAI). On the procedure:
as §1, §2, §3

Experiment [5] has as its system clinically isolated HIV strain O. The format is cell-based. To be noted: FR=EC50(mutant strain)/EC50(HIV-1 strain LAI). On the procedure:
as §1, §2, §3

The test system of another experiment is virus strain S (R13080). Kind of experiment: microbe, parasite or virus in culture. The format is cell-based, HIV. To be noted: FR=EC50(mutant strain)/EC50(HIV-1 strain LAI); strain S. The procedure, abridged: (§4)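 Activity against mutation-bearing clinical isolates is given as fold resistance, the ratio of mutant to HIV-1 LAI EC50. EC50 and EC90 reflect 50% and 90% protection of infected MT4 cells over a five-day culture. Cell survival was quantified by MTT formazan absorbance at 540 nm.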

Another experiment concerns virus strain F (R13025). Kind of experiment: microbe, parasite or virus in culture. In kind it is cell-based, HIV. Particulars: FR=EC50(mutant strain)/EC50(HIV-1 strain LAI); strain F. The procedure, abridged:
as §4

On to `CC(C)CN(C[C@@H](O)[C@H](Cc1ccccc1)NC(=O)OCc1cncs1)S(=O)(=O)c1ccc2nc(NCCN3CCNCC3)sc2c1` [Compound 57], for which the “fold resistance (FR), strain T” value in experiment [1] is given as 9.0. Besides, the “fold resistance (FR), strain J” value in experiment [2] is recorded as 1.3. Also, the “fold resistance (FR), strain H” value in experiment [3] was 1.6. The “fold resistance (FR), strain I” value in experiment [4] stood at 1.3. In addition, in experiment [5], the “fold resistance (FR), strain O” value stood at 1.3. Moreover, the “fold resistance (FR), strain S” value with virus strain S (R13080) came out at 1.6. For the same compound, in the experiment on virus strain F (R13025), the “fold resistance (FR), strain F” value is reported as 1.3.

`CC(C)CN(C[C@@H](O)[C@H](Cc1ccccc1)NC=O)S(=O)(=O)c1ccc2nc(NC(=O)CN3CCCC3)sc2c1` [Compound 55]: in experiment [1], the “fold resistance (FR), strain T” value was 26.2. Besides, the “fold resistance (FR), strain J” value in experiment [2] came out at 26.2. In experiment [3], the “fold resistance (FR), strain H” value was 10.0. Further, the “fold resistance (FR), strain I” value in experiment [4] worked out at 9.1. The “fold resistance (FR), strain O” value in experiment [5] is 26.2. The “fold resistance (FR), strain S” value in the experiment with virus strain S (R13080) was determined as 26.2. Besides, in the experiment on virus strain F (R13025), the “fold resistance (FR), strain F” value was 26.2.

Turning to `Cc1c(N)cccc1C(=O)N[C@@H](Cc1ccccc1)[C@H](O)CN(CC(C)C)S(=O)(=O)c1ccc2nc(NC(=O)CN3CCN(C)CC3)sc2c1.O=C(O)C(F)(F)F` [Compound 66], in experiment [1], the “fold resistance (FR), strain T” value came to 87.9. The “fold resistance (FR), strain J” value in experiment [2] was determined as 1.2. The “fold resistance (FR), strain H” value in experiment [3] came to 0.9. For the same compound, the “fold resistance (FR), strain I” value in experiment [4] amounted to 1.0. In addition, in experiment [5], the “fold resistance (FR), strain O” value is 1.0. For the same compound, the “fold resistance (FR), strain S” value in the experiment on virus strain S (R13080) was 5.6. The “fold resistance (FR), strain F” value in the experiment with virus strain F (R13025) came out at 4.0.

In the case of `Cc1cccc(C)c1OCC(=O)N[C@@H](Cc1ccccc1)[C@H](O)CN(CC(C)C)S(=O)(=O)c1ccc2nc(NCCN3CCCC3)sc2c1` [Compound 46], the “fold resistance (FR), strain T” value in experiment [1] was determined as 44.4. Moreover, the “fold resistance (FR), strain J” value in experiment [2] was found to be 2.8. For the same compound, the “fold resistance (FR), strain H” value in experiment [3] is 1.3. Further, in experiment [4], the “fold resistance (FR), strain I” value amounted to 3.3. In experiment [5], the “fold resistance (FR), strain O” value is listed as 3.2. Besides, the “fold resistance (FR), strain S” value in the experiment on virus strain S (R13080) turned out to be 7.1. In addition, in the experiment on virus strain F (R13025), the “fold resistance (FR), strain F” value was determined as 4.7.

For `Cc1c(N)cccc1C(=O)N[C@@H](Cc1ccccc1)[C@H](O)CN(CC(C)C)S(=O)(=O)c1ccc2nc(NCCN(C)C)sc2c1` [Compound 39], the “fold resistance (FR), strain T” value in experiment [1] is given as 249.9. Moreover, in experiment [2], the “fold resistance (FR), strain J” value is listed as 2.2. The “fold resistance (FR), strain H” value in experiment [3] is recorded as 2.3. The “fold resistance (FR), strain I” value in experiment [4] amounted to 2.4. The “fold resistance (FR), strain O” value in experiment [5] worked out at 1.7. For the same compound, in the experiment on virus strain S (R13080), the “fold resistance (FR), strain S” value turned out to be 16.5. Further, the “fold resistance (FR), strain F” value in the experiment with virus strain F (R13025) came out at 19.7.

Regarding `CC(=O)Nc1nc2ccc(S(=O)(=O)N(CC(C)C)C[C@@H](O)[C@H](Cc3ccccc3)NC(=O)c3cc([N+](=O)[O-])ccc3C)cc2s1` [Compound 72], the “fold resistance (FR), strain T” value in experiment [1] amounted to 641.1. Moreover, in experiment [2], the “fold resistance (FR), strain J” value is listed as 11.4. Also, the “fold resistance (FR), strain H” value in experiment [3] came to 24.9. In addition, the “fold resistance (FR), strain I” value in experiment [4] turned out to be 26.2. Besides, in experiment [5], the “fold resistance (FR), strain O” value turned out to be 24.4. For the same compound, the “fold resistance (FR), strain S” value in the experiment with virus strain S (R13080) was 118.0. For the same compound, the “fold resistance (FR), strain F” value in the experiment on virus strain F (R13025) was determined as 67.0.

For `CC(C)CN(C[C@@H](O)[C@H](Cc1ccccc1)NC(=O)OCc1cncs1)S(=O)(=O)c1ccc2nc(NCCN(C)C)sc2c1` [Compound 48], the “fold resistance (FR), strain T” value in experiment [1] was 175.0. For the same compound, the “fold resistance (FR), strain J” value in experiment [2] worked out at 6.5. The “fold resistance (FR), strain H” value in experiment [3] came out at 2.5. Further, the “fold resistance (FR), strain I” value in experiment [4] was 2.5. The “fold resistance (FR), strain O” value in experiment [5] worked out at 4.3. For the same compound, the “fold resistance (FR), strain S” value with virus strain S (R13080) stood at 13.8. In addition, the “fold resistance (FR), strain F” value in the experiment on virus strain F (R13025) turned out to be 9.4.

With `Cc1cccc(C)c1OCC(=O)N[C@@H](Cc1ccccc1)[C@H](O)CN(CC(C)C)S(=O)(=O)c1ccc2nc(NCCCN(C)C)sc2c1` [Compound 53], in experiment [1], the “fold resistance (FR), strain T” value was determined as 49.8. For the same compound, the “fold resistance (FR), strain J” value in experiment [2] is recorded as 1.4. In addition, the “fold resistance (FR), strain H” value in experiment [3] is 0.6. Moreover, in experiment [4], the “fold resistance (FR), strain I” value is reported as 1.3. The “fold resistance (FR), strain O” value in experiment [5] worked out at 1.6. In the experiment with virus strain S (R13080), the “fold resistance (FR), strain S” value is 3.8. For the same compound, the “fold resistance (FR), strain F” value in the experiment on virus strain F (R13025) is 2.1.
